Measured values: PMC11435438, “Cyclin-Dependent Kinase 8 Represents a Positive Regulator of Cytomegalovirus Replication and a Novel Host Target for Antiviral Strategies” (Pharmaceutics, 2024)

What was measured:
[1] = tested on: KSHV rKSHV.219-GFP; test: KSHV lytic replication assay in iSLK.219 cells; format: cell-based, Kaposi's sarcoma-associated herpesvirus; conditions: Human gammaherpesvirus 8, read-out: EC50 KSHV
Protocol: (§1) Primary human foreskin fibroblasts (HFFs; obtained from clinical samples at Children’s Hospital in Erlangen, Germany), guinea pig embryonic fibroblasts (GPEFs; generously provided by Mark R. Schleiss from the University of Minnesota in Minneapolis, MN, USA), and rat embryonic fibroblasts were cultivated in Eagle’s Minimal Essential Medium (MEM) supplemented with 1 × GlutaMAX™ (both from Thermo Fisher Scientific, Waltham, MA, USA), 10 µg/mL gentamicin, and 10% fetal bovine serum (FBS; Capricorn, Ebsdorfergrund, Germany). Human glioblastoma–astrocytoma cell line (U373) and mouse embryonic fibroblasts (MEFs), both obtained from ATCC (Manassas, VA, USA), and Vero cell sublineage 76 [26], were cultivated in Dulbecco’s modified Eagle’s medium (DMEM) supplemented with 1 × GlutaMAX™, 10 µg/mL gentamicin, and 10% fetal bovine serum. All cultured cells were maintained under the conditions of 37 °C temperature, 5% CO2, and 80% humidity. The regular monitoring for the absence of mycoplasma contamination was conducted using Lonza™ Mycoalert™ (Thermo Fisher Scientific, Waltham, MA, USA). Cultured cell-based viral replication assays were performed by the use of the HCMV strain AD169 (variant U.K.), the recombinant HCMVs AD169-GFP expressing green fluorescent protein [27], TB40 IE2-YFP and TB40-FLuc expressing an IE2-YFP fusion protein or firefly luciferase (FLuc), and Merlin-GFP [31]. […]
(§2) A variety of antiherpesviral and non-herpesviral drug activities were assessed by the cell culture-based viral replication systems, as described elsewhere. […] After incubation at 37 °C for 3 days, iSLK.219 cells were fixed with 10% formalin, washed with PBS, and used for a quantitation of RFP reporter signal by PicoMD counting (ImageXpress® Pico device, Molecular Devices LLC, San Jose, CA, USA). […]

[2] = tested on: HHV-6A-GFP; test: HHV-6A replication assay in J-Jhan cells; format: cell-based, human herpesvirus type 6A; conditions: Homo sapiens, read-out: EC50 HHV-6A
Protocol: as §1, §2

[3] = tested on: HCMV TB40-YFP; test: HCMV TB40-YFP replication assay in HFFs; format: cell-based, human cytomegalovirus; conditions: Human betaherpesvirus 5, HFF, read-out: EC50 TB40-YFP
Protocol: (§3) (i.e., 1 × TCID25/7d). Immediately after virus adsorption, the cells were treated with antiviral compounds or solvent control (DMSO). Infections were performed in biological quadruplicates, or as indicated for individual experiments. The cells were fixed by the addition of 150 µL 10% formalin/well 7 d p.i. (Merlin-GFP 14 d p.i.), and washed with PBS. For GFP or YFP quantitation, the Victor X4 microplate reader (PerkinElmer, Waltham, MA, USA) was primarily used, or as a very sensitive alternative, the ImageXpress® Pico device (Molecular Devices LLC, San Jose, CA, USA). Mean EC50 values of antiviral efficacy were calculated on the basis of three experimental replicates or as indicated (measurement of fluorescence values in quadruplicate), and percentage values were provided relative to the solvent control (DMSO).

[4] = tested on: HSV-1 166v VP22-GFP; test: HSV-1 replication assay in HFFs; format: cell-based, herpes simplex virus type 1; conditions: Human alphaherpesvirus 1, read-out: EC50 HSV-1
Protocol: as §1, §2

[5] = tested on: HCMV Merlin-GFP; test: HCMV Merlin-GFP replication assay in U373 cells; format: cell-based, human cytomegalovirus; conditions: Human betaherpesvirus 5, U373 MG, read-out: EC50 Merlin-GFP
Protocol: as §3

| SMILES | EC50 [1] [nM] | EC50 [2] [nM] | EC50 [3] [nM] | EC50 [4] [nM] | EC50 [5] [nM] |
| --- | --- | --- | --- | --- | --- |
| CN(C)C(=O)Cn1cc(-c2ccc(-c3cncc4ccccc34)cc2)cn1 [BI-1347] | 310 ± 610 | > 50000 | 2.83 ± 2.3 | > 50000 | 1.4 ± 1.37 |
| Cn1ncc2cc(-c3cnc(N)c(Cl)c3N3CCC4(CCNC4=O)CC3)ccc21 [CCT-151921] | 300 | 39000 ± 21000 | 10 ± 6.33 | > 50000 | 14.7 ± 16.3 |
| Cc1n[nH]c2ncc(C(=O)N3CCC[C@H]3c3ccc(Cl)cc3)cc12 [MSC-2530818] | > 40000 | > 50000 | 4.97 ± 3.3 | 42300 ± 4900 | 4.47 ± 4.4 |
